Data on 19 compounds can be found in patent publication US11278528B2, “Activator of peroxisome proliferator-activated receptor” (Nippon Chemiphar Co., Ltd., priority 2017, dated 2022).

Assay [1] deals with T1, PPARα (Homo sapiens, UniProt Q07869).
T1 construct: purchased Fujikura Kasei Co., Ltd. PPARA-CBP
T1 sequence (Q07869 1-468): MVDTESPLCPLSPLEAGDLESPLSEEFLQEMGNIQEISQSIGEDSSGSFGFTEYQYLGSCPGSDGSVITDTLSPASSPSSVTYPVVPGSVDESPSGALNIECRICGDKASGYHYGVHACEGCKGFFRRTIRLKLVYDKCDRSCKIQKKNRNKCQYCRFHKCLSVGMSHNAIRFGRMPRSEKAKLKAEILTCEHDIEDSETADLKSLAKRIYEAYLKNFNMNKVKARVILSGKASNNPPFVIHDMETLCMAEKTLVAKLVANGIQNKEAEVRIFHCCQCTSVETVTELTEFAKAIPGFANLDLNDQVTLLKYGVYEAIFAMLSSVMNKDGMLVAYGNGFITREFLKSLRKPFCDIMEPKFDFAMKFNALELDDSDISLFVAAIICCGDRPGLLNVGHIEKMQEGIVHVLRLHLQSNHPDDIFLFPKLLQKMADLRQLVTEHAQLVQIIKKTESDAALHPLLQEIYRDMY
Description: Measurement of agonist activity against PPARα (EnBio RCAS for PPARα kit, PPARA-CBP). The assay is classed as biochemical. As to conditions: evaluation concentration 10 μM, ratio to maximal response well (GW7647 0.5 μM); for activation at 10 µM: read-out: Binding ratio (%) @ 10 μM. As for the experimental part: (1) Measurement of Agonist Activity against PPARα
For the measurement of agonist activity against PPARα, the absorbance was measured according to the kit protocol using EnBio RCAS for PPARα kit (PPARA-CBP, Fujikura Kasei Co., Ltd.). A sample was dissolved in dimethylsulfoxide and added to a 96-well plate so as to have an evaluation concentration of 10 μM. GW7647 was added to a maximal response well so as to have a concentration of 0.5 μM. Dimethylsulfoxide was added to background wells. After subtracting the absorbance of the background well from the absorbance of each sample addition well, the ratio of each sample addition well to the maximal response well was calculated to evaluate the agonist activity (Binding ratio, %) against PPARα. Note that the sample addition wells and the background wells were duplicated, and the maximal response well was quadruplicated. As a positive control, 10 μM of a known PPARα agonist; Fenofibric acid (Tokyo Chemical Industry Co., Ltd.) was used.

The subject of assay [2] is NAFLD model rats fed with a methionine/choline-deficient (MCD) diet. As to the kind of experiment: Non-alcoholic fatty liver disease (NAFLD) model rats induced by methionine/choline-deficient diet. Type of assay: in vivo, Wistar rats. As to conditions: for Plasma ALT as an indicator of liver damage: versus Vehicle group (FIG. 1A); for Liver TG level as an indicator of fatty liver: versus Vehicle group (FIG. 1B). An excerpt:
(1) Evaluation Using Non-Alcoholic Fatty Liver Disease (NAFLD) Model Rats Induced by Methionine/Choline-Deficient Diet
As a NAFLD model, rats fed with a methionine/choline-deficient (MCD) diet were used to perform experiments. The MCD diet-fed model is widely used as a model for NAFLD/NASH.
Wistar rats (male, 8 weeks old, Charles River Laboratories Japan, Inc.) were fed with an MCD diet (A02082002B, Research Diets, Inc.) for 5 weeks. From the time of feeding the above diet for 1 week, the rats were divided into a Vehicle group, a COMPOUND 2 (50 mg/kg) group, and a Fenofibrate (100 mg/kg) group so that there was no difference in body weight between the groups (n=4 in each of the groups). The Normal group was fed with an MCS diet as a control diet for the MCD diet (A02082003B, Research Diets, Inc.) for the same period. The administration volume was 10 mL/kg, a 1% methylcellulose solution was repeatedly orally administered to the Vehicle group and the Normal group, and a COMPOUND 2 solution and a Fenofibrate solution were repeatedly orally administered to the COMPOUND 2 group and the Fenofibrate group, respectively, once a day for 4 weeks.
The day after the end of the final administration, blood was collected from the posterior vena cava under non-fasting conditions and isoflurane inhalation anesthesia, and plasma was collected. Further, the liver was removed and a part thereof was cryopreserved. Plasma ALT was measured by the JSCC standardized method. Triglyceride (TG) in the liver was extracted from the liver with a chloroform/methanol mixed solution (2:1, v/v), evaporated to dryness, and dissolved in 2-propanol, and then the amount was measured using Triglyceride E Test Wako. The results were each expressed as a mean value±standard deviation. Significant difference was tested between the Normal group and the Vehicle group using the Welch's t test (unpaired) (#: p<0.05 and ###: p<0.001), and significant difference was tested among the Vehicle group and the test substance administration groups using the Dunnett's test (*: p<0.05, **: p<0.01, and ***: p<0.001).

The test system of assay [3] is ZDF rats with low urinary pH. As to the kind of experiment: Low urinary pH improving effect in diabetic model Zucker Diabetic Fatty (ZDF) rats. The conditions noted are these: 24 h urine, versus Vehicle group (FIG. 2). The assay is classed as in vivo, ZDF (Lepr^fa/Lepr^fa) rats. As for the experimental part: (1) Evaluation Using Diabetic Models, Zucker Diabetic Fatty (ZDF) Rats
In this example, the low urinary pH improving effect of COMPOUND 2 was evaluated using diabetic model animals; ZDF rats with low urinary pH. Verinurad; a known URAT1 inhibitor was evaluated as a comparative control compound (the PPARα activating effect of Verinurad was evaluated by the method described in Test Example 1, and as a result, the binding ratio at an evaluation concentration of 10 μM was 3.80%, and no effect was confirmed).
ZDF (Lepr^fa/Lepr^fa) rats (male, 7 weeks old at the start of administration, Charles River Laboratories Japan, Inc.) were divided into a Vehicle group, a COMPOUND 2 (25 mg/kg) group, a COMPOUND 2 (50 mg/kg) group, and a Verinurad (50 mg/kg) group so that there was no difference in body weight between the groups (n=5 in each of the groups). As a Lean group, ZDF (Lean) rats, i.e., control animals of ZDF (Lepr^fa/Lepr^fa) rats, were used (n=5). The administration volume was 10 mL/kg, a 1% methylcellulose solution was repeatedly orally administered to the Vehicle group and the Lean group, and a COMPOUND 2 solutions and a Verinurad solution were repeatedly orally administered to the COMPOUND 2 groups and the Verinurad group, respectively, once a day for 15 days.
During the administration period, the pH of a urine sample obtained by urine collection was measured using a compact pH meter (B-712, Horiba, Ltd.). Urine collection was performed 6 days before the start of administration (pre), on the 1st day, 7th day and 14th day of administration, and urine was collected in a metabolic cage for 24 hours. The results were each expressed as a mean value±standard deviation. At each time point, significant difference was tested between the Lean group and the Vehicle group using the Student's t test (unpaired) (###: p<0.001). After one-way analysis of variance, significant difference was tested among the Vehicle group and the test substance administration groups using the Dunnett's test (*: p<0.05, **: p<0.01, and ***: p<0.001).

Where [4] appears, read: 100 mg/kg oral once a day for 4 weeks.
The mark [5] stands for this setting: 50 mg/kg oral once a day for 15 days.
[6] abbreviates: 50 mg/kg oral once a day for 4 weeks.

On to `Cc1nsc2c(-c3ccc(C#N)cc3)c(SC(C)(C)C(=O)O)ccc12` [COMPOUND 5, 2-[[7-(4-cyanophenyl)-3-methylbenzo[d]isothiazol-6-yl]thio]-2-methyl propanoic acid], for which, in assay [1], the activation at 10 µM came out at 41.8%.

With `CC(C)(Sc1ccc2ccccc2c1-c1ccc(C#N)cc1)C(=O)O` [COMPOUND 4, 2-[[1-(4-cyanophenyl)naphthalen-2-yl]thio]-2-methylpropanoic acid], the activation at 10 µM in assay [1] was 52.6%.

As to `CC(C)(Sc1cc(F)c2cnsc2c1-c1ccc(C#N)cc1)C(=O)O` [COMPOUND 10, 2-[[7-(4-cyanophenyl)-4-fluorobenzo[d]isothiazol-6-yl]thio]-2-methylpropanoic acid], the activation at 10 µM in assay [1] stood at 71.3%.

In the case of `CC(C)(Sc1ccc2ncsc2c1-c1ccc(C#N)cc1)C(=O)O` [COMPOUND 1, 2-[[7-(4-cyanophenyl)benzo[d]thiazol-6-yl]thio]-2-methylpropanoic acid], the activation at 10 µM in assay [1] was 49.2%.

For the compound `CC(C)(Sc1ccc2cnsc2c1-c1ccc(C(F)(F)F)cc1)C(=O)O` [COMPOUND 9, 2-methyl-2-[[7-[4-(tri-fluoromethyl)phenyl]benzo[d]iso-thiazol-6-yl]thio]propanoic acid], the activation at 10 µM in assay [1] is 87%.

In the case of `N#Cc1ccc(-c2c(SC3(C(=O)O)CCC3)ccc3cnsc23)cc1` [COMPOUND 8, 1-[[7-(4-cyanophenyl)benzo[d]isothiazol-6-yl]thio]cyclobutan-1-carboxylic acid], the activation at 10 µM in assay [1] came out at 29.9%.

In the case of `CC(C)(Oc1ccc(C(=O)c2ccc(Cl)cc2)cc1)C(=O)O` [Fenofibric acid, 2-[4-(4-chlorobenzoyl)phenoxy]-2-methylpropionic acid, reference compound], the “Binding ratio (%) @ 10 μM” value in assay [1] is reported as 50.46%.

As for `Cc1nsc2c(-c3ccc(C#N)cc3)c(SC3(C(=O)O)CCC3)ccc12` [COMPOUND 14, 1-[[7-(4-cyanophenyl)-3-methylbenzo[d]isothiazol-6-yl]thio]cyclobutan-1-carboxylic acid], the activation at 10 µM in assay [1] came out at 26.5%.

`Cc1cc(-c2c(SC(C)(C)C(=O)O)ccc3cnsc23)ccc1C#N` [COMPOUND 13, 2-[[7-(4-cyano-3-methylphenyl)benzo[d]isothiazol-6-yl]thio]-2-methylpropanoic acid]: the activation at 10 µM in assay [1] is 20.8%.

As for `CC(C)(C)C(Sc1ccc2cnsc2c1-c1ccc(C#N)cc1)C(=O)O` (stereo not shown) [COMPOUND 16, 2-[[7-(4-cyanophenyl)benzo[d]isothiazol-6-yl]thio]-3,3-dimethylbutanoic acid], in assay [1], the activation at 10 µM came out at 11.8%.

As for fenofibrate [reference compound], in assay [2] (setting [4]), the “Plasma ALT as an indicator of liver damage” value is recorded as “significantly lower values than the Vehicle group” and the “Liver TG level as an indicator of fatty liver” value was “significantly lower”.

With `Cc1nc2ccc(SC(C)(C)C(=O)O)c(-c3ccc(C#N)cc3)c2s1` [COMPOUND 7, 2-[[7-(4-cyanophenyl)-2-methylbenzo[d]thiazol-6-yl]thio]-2-methylpropanoic acid], the activation at 10 µM in assay [1] stood at 47%.

Turning to `CC(C)(Sc1ccncc1-c1ccc(C#N)c2ccccc12)C(=O)O` [Verinurad, reference compound], the “Urine pH” value in assay [3] (setting [5]) was “no low urinary pH improving effect was observed throughout the administration period”. Moreover, the activation at 10 µM in assay [1] is 3.8%.

For the compound `CC(C)(Sc1ccc2cnsc2c1-c1ccc(C#N)cc1)C(=O)O` [COMPOUND 2, 2-[[7-(4-cyanophenyl)benzo[d]isothiazol-6-yl]thio]-2-methylpropanoic acid], in assay [3] (25 mg/kg oral once a day for 15 days), the “Urine pH” value is “significantly increased from the 7th day of administration”. Besides, in assay [3] (setting [5]), the “Urine pH” value was “significantly increased from the 1st day of administration”. Also, in assay [2] (setting [6]), the “Plasma ALT as an indicator of liver damage” value is reported as “significantly lower values than the Vehicle group” and the “Liver TG level as an indicator of fatty liver” value is “significantly lower”. For the same compound, in assay [1], the activation at 10 µM was determined as 69.8%.

Regarding `CCC(CC)(Sc1ccc2cnsc2c1-c1ccc(C#N)cc1)C(=O)O` [COMPOUND 15, 2-[[7-(4-cyanophenyl)benzo[d]isothiazol-6-yl]thio]-2-ethylbutanoic acid], the activation at 10 µM in assay [1] worked out at 59%.

Turning to `CC(C)(Oc1cc2ncsc2cc1-c1ccc(C#N)cc1)C(=O)O` [COMPOUND 3, 2-[[6-(4-cyanophenyl)benzo[d]thiazol-5-yl]oxy]-2-methylpropanoic acid], the activation at 10 µM in assay [1] worked out at 16%.

As for `CC(C)(Sc1ccc2cnsc2c1-c1ccc(Cl)cc1)C(=O)O` [COMPOUND 12, 2-[[7-(4-chlorophenyl)benzo[d]isothiazol-6-yl]thio]-2-methylpropanoic acid], the activation at 10 µM in assay [1] stood at 92.6%.

Turning to `N#Cc1ccc(-c2c(SC3(C(=O)O)CCCC3)ccc3cnsc23)cc1` [COMPOUND 11, 1-[[7-(4-cyanophenyl)benzo[d]isothiazol-6-yl]thio]cyclopentan-1-carboxylic acid], the activation at 10 µM in assay [1] was 21.7%.

Consider `CC(C)(Sc1ccc2nc(C(F)(F)F)sc2c1-c1ccc(C#N)cc1)C(=O)O` [COMPOUND 6, 2-[[7-(4-cyanophenyl)-2-(trifluoromethyl)benzo[d]thiazol-6-yl]thio]-2-methylpropanoic acid], for which the activation at 10 µM in assay [1] came to 24.7%.
